Measurements from article PMC4277729 (Bioorganic & medicinal chemistry letters, 2014).
In brackets after ≈: the same amount, converted by molar mass.

What was measured:
chicken sEH (chxEH) = chicken sEH (chxEH) (Gallus gallus, UniProt Q45QT1); assay: chxEH inhibition, fluorescent substrate PHOME; format: biochemical
chxEH [1] = target: T1, chxEH (Gallus gallus, UniProt Q45QT1); assay: FRET-based competitive displacement assay with reporter ligand ACPU
[2] = solubility by turbidity measurement at 600 nm; format: physicochemical; settings: sodium phosphate buffer, pH 7.4
chxEH [3] = target: T1, chxEH; assay: kinetic constants of chxEH for epoxy-fatty acid substrate; format: biochemical, chicken; settings: chxEH's best substrate
[4] = substrate of recombinant purified chicken sEH

## CCC(=O)N1CCC(NC(=O)Nc2ccc(OC(F)(F)F)cc2)CC1 [TPPU]
Chicken sEH (chxEH); inhibitor 100 nM, chxEH 1.4 nM, primary screen, endpoint mode
  inhibition of chxEH: 15%

## O=C(NC1CCN(C(=O)Cc2cc(=O)oc3cc(O)ccc23)CC1)NC12CC3CC(CC(C3)C1)C2 [ACPU]
chxEH [1]
  Kd: 0.283 nM

## O=C(O)CCCCCCCCCCCNC(=O)NC12CC3CC(CC(C3)C1)C2 [AUDA]
Chicken sEH (chxEH)
  IC50: 12 nM
[2]
  solubility: 37.5 to 50 µM (≈ 14.7 to 19.6 µg/mL)

## CCC=CCC1OC1CC=CCC=CCC=CCC=CCCC(=O)O (centres unmarked) [16,17-epoxy-docosapentaenoic acid]
chxEH [3]
  Km: 12 ± 3 µM
  Vmax: 728 ± 97 nmol/min/mg

## COc1ccc2cc(C(C#N)OC(=O)CC3OC3c3ccccc3)ccc2c1 (centres unmarked) [PHOME, (3-phenyl-oxiranyl)-acetic acid cyano-(6-methoxy-naphthalen-2-yl)-methyl ester]
Chicken sEH (chxEH); [4]
  Km: 1.5 ± 0.3 µM
  Vmax: 60 ± 4 nmol/min/mg
